Measured values published in patent publication US8143246B2, “1-(4-(pyridin-2-yl)benzyl)imidazolidine-2,4-dione derivatives” (MSD OSS B.V., priority 2008, dated 2012).

Legend:
[1] = system: mechanical allodynia induced by spinal nerve ligation in rats; test: Rat (Chung) model of neuropathic pain; type: in vivo; conditions: for Withdrawal threshold (g) at peak effect: p.o., male Wistar rats, von Frey, mean ± s.e.m.
Procedure: The Rat (Chung) Model of Neuropathic Pain
In this model, mechanical allodynia is induced by tight ligation of the left L5 spinal nerve.
Male Wistar rats (228-301 g body weight at time of surgery) were employed in the study. Rats were placed on an elevated (˜40 cm) mesh floor in perspex boxes and the rats' withdrawal threshold to a mechanical stimulus (calibrated von Frey filaments) was measured using filaments of increasing force (2.6-167 mN) as described above. The von Frey filaments were applied to the plantar surface of the paw and threshold response determined using the up and down method. A positive response was noted if the paw was sharply withdrawn. A cut-off of 15 g was selected as the upper limit for testing. Following baseline measurements each animal was anaesthetised and the L5 spinal nerve tightly ligated. The animals were allowed to recover from the surgery for a period of at least three days. On the day of drug administration the paw withdrawal thresholds were re-measured (0 min). Immediately after this reading, the rats were dosed orally with vehicle or test compound and readings measured at various time points after compound administration.
Data were expressed as mean±s.e.m. Statistical analysis was performed using the Kruskal-Wallis one-way analysis of variance, a non-parametric statistical test. Each of the treatment groups were then compared against the vehicle group, using the non-parametric Dunn's test.

[2] = system: mechanical hyperalgesia induced by complete Freund's adjuvant in rats; test: Mechanical hyperalgesia in the rat (CFA inflammatory pain); type: in vivo; conditions: for % Attenuation of hyperalgesia (peak effect): p.o., male Wistar rats, Randall-Sellito, 24 h after CFA, mean ± s.e.m.
Procedure: Mechanical Hyperalgesia in the Rat
In this rat model of inflammatory pain, inflammation is induced by subcutaneous injection of complete Freund's adjuvant (CFA) into the hind paw. The associated mechanical hyperalgesia is quantified by measuring the reduction in paw withdrawal threshold (PWT) to mechanical compression the paw.
Experiments were conducted using male Wistar rats weighing (141-175 g). In brief, the rats' paw withdrawal threshold (PWT) to a mechanical compression of the hind paw was measured (baseline reading) using a Randall-Sellito apparatus (Ugo Basile). A cut-off of 20 g was employed to minimise tissue damage to the paw. The animals were then lightly anaesthetised with isoflurane (1-3%) and complete Freund's adjuvant (0.1 ml per paw) was injected subcutaneously (s.c.) into the plantar surface of the left hind paw. The animals were then returned to their home cage and left for the inflammation to develop. Twenty four hours after CFA injection, PWT's were re-measured (0 min) and immediately after this reading, rats were dosed orally with either vehicle or test compound (4.4-43.8 μmol/kg p.o. of compound 12). Readings were then made at 3 h post administration. Data were plotted as mean±s.e.m. and compared between groups using the Kruskal-Wallis one-way analysis of variance, a non-parametric statistical test. […] The percent attenuation of mechanical hyperalgesia is calculated as follows: […]

CC(C)CN1C(=O)CN(Cc2ccc(-c3cccc(CN4CCCCC4)n3)cc2)C1=O [Example 12, 3-Isobutyl-1-(4-(6-(piperidin-1-ylmethyl)pyridin-2-yl)benzyl)imidazolidine-2,4-dione]
Effect on mechanical allodynia ([1]; oral, 120 and 180 min post drug administration): attenuated mechanical allodynia in a dose-dependent fashion
Minimum effective dose (MED) ([1]; oral, mechanical allodynia): 43.8 µmol/kg
Withdrawal threshold (g) at peak effect ([1]; 4.4 μmol/kg): 2.40 ± 0.64 g
Withdrawal threshold (g) at peak effect ([1]; 13.2 μmol/kg): 4.32 ± 1.63 g
Withdrawal threshold (g) at peak effect ([1]; 43.8 μmol/kg, p ≦ 0.01 vs vehicle): 8.97 ± 2.21 g
Effect on mechanical hyperalgesia induced by CFA ([2]; oral, 4.4-43.8 μmol/kg): reversed mechanical hyperalgesia induced by CFA in a dose-dependent fashion
MED ([2]; oral, CFA-induced mechanical hyperalgesia): 13.2 µmol/kg
% Attenuation of hyperalgesia (peak effect) ([2]; 4.4 μmol/kg): 58.64 ± 27.32%
% Attenuation of hyperalgesia (peak effect) ([2]; 13.2 μmol/kg, p ≦ 0.01 vs vehicle): 69.70 ± 12.88 %
% Attenuation of hyperalgesia (peak effect) ([2]; 43.8 μmol/kg, p ≦ 0.001 vs vehicle): 116.74 ± 23.78 %
